Drawing on US8883789B2, “Piperazine derivatives and their use as positive allosteric modulators of mGluR5 receptors” (Boehringer Ingelheim International GmbH, priority 2011, dated 2014), this text covers EC50 for 54 molecules.

Each structure is given as a SMILES string.

T1 sequence (P41594 21-1212): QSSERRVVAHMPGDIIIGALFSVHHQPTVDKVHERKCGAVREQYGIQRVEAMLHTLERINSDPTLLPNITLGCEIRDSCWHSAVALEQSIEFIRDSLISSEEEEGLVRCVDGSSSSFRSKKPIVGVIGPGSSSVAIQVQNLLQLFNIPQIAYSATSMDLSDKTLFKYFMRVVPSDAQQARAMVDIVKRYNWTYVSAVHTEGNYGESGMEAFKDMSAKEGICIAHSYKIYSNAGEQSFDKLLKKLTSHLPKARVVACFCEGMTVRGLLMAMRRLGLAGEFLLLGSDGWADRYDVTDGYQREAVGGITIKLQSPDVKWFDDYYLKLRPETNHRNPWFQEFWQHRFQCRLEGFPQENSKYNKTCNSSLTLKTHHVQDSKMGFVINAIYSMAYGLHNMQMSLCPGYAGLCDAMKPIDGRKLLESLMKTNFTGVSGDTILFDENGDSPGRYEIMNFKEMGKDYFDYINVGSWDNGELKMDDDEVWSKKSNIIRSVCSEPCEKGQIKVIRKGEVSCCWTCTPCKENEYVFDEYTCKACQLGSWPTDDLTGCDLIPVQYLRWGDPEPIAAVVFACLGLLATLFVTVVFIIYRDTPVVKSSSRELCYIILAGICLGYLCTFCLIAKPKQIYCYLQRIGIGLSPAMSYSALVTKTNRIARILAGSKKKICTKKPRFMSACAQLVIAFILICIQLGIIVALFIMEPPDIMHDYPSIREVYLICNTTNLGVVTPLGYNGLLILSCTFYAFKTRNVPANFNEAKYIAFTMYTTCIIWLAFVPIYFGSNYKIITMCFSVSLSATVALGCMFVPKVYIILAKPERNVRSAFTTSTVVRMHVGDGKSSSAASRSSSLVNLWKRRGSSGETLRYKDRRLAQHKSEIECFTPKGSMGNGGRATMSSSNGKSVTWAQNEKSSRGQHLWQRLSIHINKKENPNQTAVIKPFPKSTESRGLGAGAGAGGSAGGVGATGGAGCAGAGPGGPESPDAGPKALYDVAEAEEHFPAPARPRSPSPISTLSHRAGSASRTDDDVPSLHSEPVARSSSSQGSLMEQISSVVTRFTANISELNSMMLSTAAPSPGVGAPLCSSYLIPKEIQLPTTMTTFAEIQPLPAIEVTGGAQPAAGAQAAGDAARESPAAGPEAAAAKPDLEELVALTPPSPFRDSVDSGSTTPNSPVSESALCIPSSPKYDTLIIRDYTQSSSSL

The assay has as its target T1, human recombinant mGluR5 (Homo sapiens, UniProt P41594).
T1 construct: expressed in transfected cells; hygromycin and geneticin selection
As to the kind of experiment: positive modulation of mGluR5, calcium based FLIPR assay. Conditions: HEK 293 cell line expressing human recombinant mGluR5; Ca2+ peak height after glutamate at approximately 5% basal stimulation; nonlinear regression. Put shortly: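 HEK293 cells with tetracycline-free induction, Calcium-4 dye-loaded in Ringer pH 7.4. Compound added 5 min before glutamate at ~5% of maximal effect, 1% DMSO. EC50 from peak Ca2+ fluorescence, normalized to basal glutamate (100%) and 10 μM CDPPB (200%), via nonlinear regression.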
Turning to `COCC1(C)CN(C(=O)c2cccc(OC)n2)CCN1C(=O)c1ncn(-c2cccc(Cl)c2)n1` (stereo not drawn) [Example 311], the EC50 came to 577 nM.
As for `COc1nc(C(=O)N2CCN(C(=O)c3ncn(-c4cccc(Cl)c4)n3)C(C)(C)C2)cc2cc(F)ccc12` [Example 21], the figure is 62 nM.
As for `COc1cc2cc(C(=O)N3CCN(C(=O)c4ncn(-c5cccc(Cl)c5)n4)C(C)(C)C3)nc(OC)c2cc1OC` [Example 32], the figure is 179 nM; as for `COc1cc(C)cc(C(=O)N2CCN(C(=O)c3ncn(-c4cccc(Cl)c4)n3)C(C)(C)C2)n1` [Example 22], 58 nM.
For `Cc1nn(C)cc1-c1cccc(C(=O)N2CCN(C(=O)c3ncn(-c4cccc(Cl)c4)n3)C(C)(C)C2)n1` [Example 93] the value was 242 nM; for `Cn1ccc2cc(C(=O)N3CCN(C(=O)c4ncn(-c5ccccc5)n4)C(C)(C)C3)ccc21` [Example 138], 136 nM.
Consider `Cc1ccc(C(=O)N2CCN(C(=O)c3ncn(-c4cccc(Cl)c4)n3)C(C)(C)C2)cc1Cl` [Example 71], for which the EC50 was determined as 47 nM.
As for `CC1(C)CN(C(=O)c2cc3ccccn3c2)CCN1C(=O)c1ncn(-c2cccc(Cl)c2)n1` [Example 58], the figure is 104 nM.
For `CCc1ccc(C(=O)N2CCN(C(=O)c3ncn(-c4cccc(Cl)c4)n3)C(C)(C)C2)s1` [Example 83] the value was 64 nM; for `CC(=O)Nc1ccc2oc(C(=O)N3CCN(C(=O)c4ncn(-c5ccccc5)n4)C(C)(C)C3)c(C)c2c1` [Example 133], 1110 nM; for `Cn1nc(C(=O)N2CCN(C(=O)c3ncn(-c4ccccc4)n3)C(C)(C)C2)c2ccccc21` [Example 123], 254 nM.
Turning to `CC1(C)CN(C(=O)c2cccc(C3CCC3)n2)CCN1C(=O)c1ncn(-c2ccccc2)n1` [Example 137], the EC50 worked out at 69 nM.
As for `CC1(C)CN(C(=O)c2cccc(C3CCOCC3)n2)CCN1C(=O)c1ncn(-c2cccc(Cl)c2)n1` [Example 176, [1-(3-Chloro-phenyl)-1H-[1,2,4]-triazol-3-yl]-{2,2-dimethyl-4-[6-(tetrahydro-pyran-4-yl)-pyridine-2-carbonyl]-piperazin-1-yl}-methanone], the figure is 366 nM.
For `COc1cccc(C(=O)N2CCN(C(=O)c3nnn(-c4ccccc4F)n3)C(C)(C)C2)n1` [Example 201] the value was 102 nM.
Regarding `CC(C)c1cccc(C(=O)N2CCN(C(=O)c3ncn(-c4ccccc4)n3)C(C)(C)C2)n1` [Example 206, [4-(6-isopropyl-pyridine-2-carbonyl)-2,2-dimethyl-piperazin-1-yl]-(1-phenyl-1H-[1,2,4]triazol-3-yl)-methanone], the EC50 was found to be 188 nM.
As for `Cc1oc2ccc(Br)cc2c1C(=O)N1CCN(C(=O)c2ncn(-c3cccc(F)c3)n2)C(C)(C)C1` [Example 1, [4-(5-Bromo-2-methyl-benzofuran-3-carbonyl)-2,2-dimethyl-piperazin-1-yl]-[1-(3-fluoro-phenyl)-1H-[1,2,4]triazol-3yl]-methanone], the figure is 39 nM.
As to `CC1(C)CN(C(=O)c2cccc(C(F)(F)F)c2)CCN1C(=O)c1ncn(-c2ccccc2)n1` [Example 98], the EC50 worked out at 32 nM.
Take `COc1cccc(C(=O)N2CCN(C(=O)c3ncn(-c4ccccc4)n3)C(C)(C)C2)n1` [Example 109]: the EC50 amounted to 128 nM.
For `C[C@H]1CN(C(=O)c2ncn(-c3cccc(F)c3)n2)CCN1C(=O)c1cc(Br)c(Br)o1` [Example 256, (S)-[4-(4,5-Dibromo-furan-2-carbonyl)-3-methyl-piperazin-1-yl]-[1-(3-fluoro-phenyl)-1H-[1,2,4]triazol-3-yl]-methanone] the value was 205 nM; for `COC(C)c1cccc(C(=O)N2CCN(C(=O)c3ncn(-c4ccccc4)n3)C(C)(C)C2)c1` (stereo not drawn) [Example 116], 388 nM.
For `Cc1c(C(=O)N2CCN(C(=O)c3ncn(-c4cccc(Cl)c4)n3)C(C)C2)oc2c(F)cccc12` (stereo not drawn) [Example 284], the 50% effective concentration (EC50) was found to be 858 nM.
For `Cc1cccc(C(=O)N2CCN(C(=O)c3ncn(-c4cccc(Cl)c4)n3)C(C)(C)C2)n1` [Example 39], the EC50 was determined as 419 nM.
As to `COc1cccc(C(=O)N2CCN(C(=O)c3nnn(-c4cccc(C)c4)n3)CC2C)n1` (stereo not drawn) [Example 243, (6-Methoxy-pyridin-2-yl)-[2-methyl-4-(2-m-tolyl-2H-tetrazole-5-carbonyl)-piperazin-1-yl]-methanone], the EC50 was determined as 365 nM.
As to `CC1(C)CN(C(=O)c2cccc(-c3ccn[nH]3)n2)CCN1C(=O)c1ncn(-c2cccc(Cl)c2)n1` [Example 94], the EC50 worked out at 285 nM.
As for `Cc1cccc(-n2cnc(C(=O)N3CCN(C(=O)c4cccc(C5CC5)n4)CC3(C)C)n2)c1` [Example 181], the figure is 19 nM; as for `CCCc1nc2cc(C(=O)N3CCN(C(=O)c4ncn(-c5ccccc5)n4)C(C)(C)C3)cc(C)c2[nH]1` [Example 146], 2170 nM; as for `Cc1ccc2oc(C(=O)N3CCN(C(=O)c4ncn(-c5cccc(Cl)c5)n4)CC3C)c(C)c2c1` (stereo not drawn) [Example 227], 954 nM.
For `CC(C)COc1cccc(C(=O)N2CCN(C(=O)c3ncn(-c4cccc(Cl)c4)n3)C(C)C2)c1` (stereo not drawn) [Example 282] the value was 597 nM; for `CC1(C)CN(C(=O)c2ccnc(C(F)(F)F)n2)CCN1C(=O)c1ncn(-c2ccccc2)n1` [Example 143], 589 nM.
For `Cc1cccc(-n2nnc(C(=O)N3CCN(C(=O)c4cccc(Cl)c4)CC3(C)C)n2)c1` [Example 189] the value was 36 nM; for `CC1(C)CN(C(=O)c2cccc(-c3cccc(C#N)c3)c2)CCN1C(=O)c1ncn(-c2cccc(Cl)c2)n1` [Example 55], 64 nM; for `CN(C)c1cccc(C(=O)N2CCN(C(=O)c3ncn(-c4cccc(Cl)c4)n3)C(C)(C)C2)c1` [Example 44], 136 nM.
Take `CC1(C)CN(C(=O)c2cccc(C3CC3)n2)CCN1C(=O)c1ncn(-c2ccccc2)n1` [Example 183]: the EC50 turned out to be 49 nM.
As for `COc1ccc2c(C)c(C(=O)N3CCN(C(=O)c4ncn(-c5cccc(Cl)c5)n4)CC3C)oc2c1` (stereo not drawn) [Example 213], the EC50 was found to be 817 nM.
For `Cn1c(CC2CCCC2)nc2ccc(C(=O)N3CCN(C(=O)c4ncn(-c5ccccc5)n4)C(C)(C)C3)cc21` [Example 179, [4-(2-cyclopentylmethyl-3-methyl-3H-benzoimidazole-5-carbonyl)-2,2-dimethyl-piperazin-1-yl]-(1-phenyl-1H-[1,2,4]-triazol-3-yl)-methanone] the value was 153 nM; for `CC1(C)CN(C(=O)c2cccc(Cl)c2)CCN1C(=O)c1nnn(-c2ccc(F)cc2)n1` [Example 193], 173 nM; for `COCc1cccc(C(=O)N2CCN(C(=O)c3ncn(-c4cccc(Cl)c4)n3)C(C)(C)C2)n1` [Example 38], 410 nM.
As for `Cc1oc2ccccc2c1C(=O)N1CCN(C(=O)c2ncn(-c3ccccc3)n2)C(C)C1` (stereo not drawn) [Example 295], the figure is 95 nM; as for `CC1(C)CN(C(=O)c2ccc3ccccc3c2)CCN1C(=O)c1ncn(-c2cccc(Cl)c2)n1` [Example 24], 61 nM.
As for `CCn1ccc(C(=O)N2CCN(C(=O)c3ncn(-c4cccc(Cl)c4)n3)C(C)(C)C2)n1` [Example 56], the figure is 436 nM; as for `CC1CN(C(=O)c2cccc(-c3nccs3)c2)CCN1C(=O)c1ncn(-c2cccc(Cl)c2)n1` (stereo not drawn) [Example 270], 677 nM; as for `CCCOc1cccc(C(=O)N2CCN(C(=O)c3ncn(-c4cccc(Cl)c4)n3)C(C)(C)C2)c1` [Example 20], 53 nM.
In the case of `CCOc1nc(C(=O)N2CCN(C(=O)c3ncn(-c4ccccc4)n3)C(C)(C)C2)cc2ccccc12` [Example 120], the EC50 was found to be 43 nM.
As for `Cc1c(C(=O)N2CCN(C(=O)c3ncn(-c4ccccc4)n3)C(C)(C)C2)n(C)c2ccccc12` [Example 110], the figure is 142 nM.
As for `CC1(C)CN(C(=O)c2cccc(C(F)(F)F)n2)CCN1C(=O)c1ncn(-c2cccc(Cl)c2)n1` [Example 13], the figure is 22 nM; as for `CC1(C)CN(C(=O)c2cccc(C3CC3)n2)CCN1C(=O)c1nnn(-c2ccccc2)n1` [Example 180, [4-(6-Cyclopropyl-pyridine-2-carbonyl)-2,2-dimethyl-piperazin-1-yl]-(2-phenyl-2H-tetrazol-5-yl)-methanone], 16 nM; as for `CC1CN(C(=O)c2ncn(-c3cccc(Cl)c3)n2)CCN1C(=O)c1cc(Br)c(Br)o1` (stereo not drawn) [Example 210, [1-(3-Chloro-phenyl)-1H-[1,2,4]triazol-3-yl]-[4-(4,5-dibromo-furan-2-carbonyl)-3-methyl-piperazin-1-yl]-methanone], 314 nM.
As for `CC1(C)CN(C(=O)c2cccc(Cl)c2)CCN1C(=O)c1nnn(-c2cccc(Cl)c2)n1` [Example 191], the figure is 64 nM; as for `CC1(C)CN(C(=O)c2cccc(Cl)c2)CCN1C(=O)c1ncn(-c2ccccc2)n1` [Example 186, [4-(3-Chloro-benzoyl)-2,2-dimethyl-piperazin-1-yl]-(1-phenyl-1H-[1,2,4]-triazol-3-yl)-methanone], 39 nM; as for `O=C(c1cccc(Cl)c1)N1CCN(C(=O)c2ncn(-c3ccccc3)n2)C2(CCCC2)C1` [Example 309], 145 nM.
As for `COc1ccc(C(=O)N2CCN(C(=O)c3ncn(-c4cccc(Cl)c4)n3)C(C)(C)C2)nc1OC` [Example 79], the EC50 was found to be 230 nM.
As for `CC1(C)CN(C(=O)c2cccc(S(C)(=O)=O)c2)CCN1C(=O)c1ncn(-c2ccccc2)n1` [Example 131], the figure is 1870 nM; as for `CC1(C)CN(C(=O)c2cc(Cl)c3c(c2)OCCO3)CCN1C(=O)c1nnn(-c2cccc(Cl)c2)n1` [Example 171, [4-(8-Chloro-2,3-dihydro-benzo[1,4]dioxine-6-carbonyl)-2,2-dimethyl-piperazin-1-yl]-[2-(3-chloro-phenyl)-2H-tetrazol-5-yl]-methanone], 56 nM.
As for `Cc1c(C(=O)N2CCN(C(=O)c3ncn(-c4cccc(Cl)c4)n3)C[C@H]2C)oc2ccc(F)cc12` [Example 250], the figure is 371 nM.

In general, EC50 refers to the concentration giving half of the maximal effect.
